{
  "source": "patent US20240277873A1",
  "about": "“ULTRABRIGHT […] PROBES FOR DETECTION AND IMAGING” (Nanyang Technological University, priority 2021, published 2024)",
  "key": {"NE [1]": {"molecular_target": "T1, NE (Homo sapiens, UniProt P08246)", "T1 sequence (P08246 30-267)": "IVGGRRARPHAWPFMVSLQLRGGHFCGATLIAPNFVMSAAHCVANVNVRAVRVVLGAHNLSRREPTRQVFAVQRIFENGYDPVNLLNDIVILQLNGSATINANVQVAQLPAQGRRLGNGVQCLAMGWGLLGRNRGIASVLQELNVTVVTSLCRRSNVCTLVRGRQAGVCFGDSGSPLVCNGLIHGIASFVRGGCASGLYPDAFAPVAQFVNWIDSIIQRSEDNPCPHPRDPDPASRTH", "experiment": "Enzyme kinetics study of NE with BTPDNe (Michaelis-Menten, HPLC)", "assay_type": "biochemical", "details": "NE 0.1 U/mL, BTPDNe 2-80 μM", "experimental": "To carry out the kinetic assay, various concentrations of BTPDNe (2, 5, 10, 20, 40 and 80 μM) were incubated with NE (0.1 U/mL) at 37° C. for 10 min in 50 mM Tris, 1 M NaCl, 0.05% (w/v) Brij-35, and at pH=7.5. After incubation, quantification analyses were determined by HPLC. The initial reaction velocity was calculated, plotted against the concentration of BTPDNe, and fitted to a Michaelis-Menten curve. Finally, the kinetic parameters were calculated by Michaelis Menten equation: […]\nwhere v is initial velocity, and [S] is substrate concentration."}, "neutrophils": {"tested_on": "neutrophils", "experiment": "In vitro cell chemiluminescent imaging", "assay_type": "cell-based", "experimental": "3T3 cells and immune cells (neutrophils, DC cells, T-cells and macrophage) (10^4 cells) were seeded into confocal cell culture dishes (dia. 15 mm) and incubated for 24 h. […] After incubation, the medium was removed, and the cells were washed thrice. Chemiluminescence imaging of the cells were recorded on LX71 inverted microscope (Olympus), which was equipped with infinity 3-1 (Lumenera) CCD camera. During imaging, the excitation light was blocked and the images were recorded under an open filter, with an acquisition time of 60 s."}, "dorsal skins of mice": {"tested_on": "dorsal skins of mice", "experiment": "Histopathologic, immunohistochemical and flow cytometry analyses of dorsal skins (IMQ psoriasis model)", "assay_type": "in vivo, BALB/c mice", "details": "fresh slides of dorsal skins, 2-day IMQ treatment, immunofluorescence", "experimental": "The control group was treated with Vaseline (50 mg/d) and the IMQ-treatment group was applied with IMQ cream (60 mg/d, 5%) once a day. […] Probe BTPDNe (10 uM, 1 mM in DMSO) was thoroughly mixed with Aquaphor (˜10 mg) and applied for psoriasis imaging, followed by poly(methyl methacrylate) microneedle treatment for 1 min. Then, chemiluminescent signals at different time-points (0, 3, 5, 10, 15, 30, 45 and 60 min) after probe-treatment were recorded using IVIS system bioluminescence with acquiring time of 180 s. Until the third day, all the mice were sacrificed to collect tissue and blood for further experiments (hematoxylin and eosin (H&E) staining and flow cytometry analysis) as described in Example 11.\nThe dorsal skin samples were separated and soaked in 4% paraformaldehyde (4% PFA) for 12 h and immersed in 30% sucrose solution. The skin samples were stained by hematoxylin and eosin (H&E). Then, the samples were flash-frozen by liquid nitrogen, immobilized with optimal cutting temperature compound, and section slices ([…]). The thickness of epidermis was observed under a microscope (Nikon ECLIPSE 80i microscope). APC-Ly6G, as a neutrophil marker, was used to stain neutrophil cells and DAPI was applied for cell nucleus staining. The immunofluorescence was observed by Nikon ECLIPSE 80i microscope.\nAfter performing in vivo chemiluminescence imaging of neutrophils using BTPDNe in psoriasis-bearing mice with 2 day IMQ treatment, fresh section slices from dorsal skins were stained with Ly6G. Immunofluorescence imaging of slices with activated BTPDNe in green color was observed upon excitation at 405 nm and emission at 500-550 nm, while red color from Ly6G was observed upon excitation from 633-647 nm and emission at 660 nm. The immunofluorescence imaging was acquired by Nikon ECLIPSE 80i microscope."}, "NE [2]": {"molecular_target": "T1, NE", "experiment": "Chemiluminescence and fluorescence changes of BTPDNe and MPDNe in the presence of NE (response, selectivity, LOD, half-life)", "assay_type": "biochemical", "experimental": "Chemiluminescence and fluorescence changes of BTPDNe (20 μM) were determined in the presence of NE (0.1 U/ml), other different enzymes (˜0.1 U/mL, APN, ALP, Cas-3, cat B, GGT, β-gal and NTR) in 50 mM Tris, 1 M NaCl, 0.05% (w/v) Brij-35, pH 7.5 at 37° C. after 30 min incubation.\nChemiluminescence and fluorescence changes of BTPDNe and MPDNe (20 μM) in the presence of NE (0.1 U/mL), or other different enzymes (˜0.1 U/mL, APN, ALP, Cas-3, Cat B, GGT, β-gal, NTR, CatG and PR3) were tested after 30 min incubation in 50 mM Tris, 1 M NaCl, 0.05% (w/v) Brij-35, pH 7.5 at 37° C.\nTo determine the LOD for NE enzyme detection, the chemiluminescence of BTPDNe was recorded in 50 mM Tris, 1 M NaCl, 0.05% (w/v) Brij-35, pH 7.5 at 37° C. with different concentrations of NE (0, 0.05, 0.1, 0.5, 1, and 2 U/ml) for 30 min incubation. Then, initial reaction velocity was calculated."}, "LPS-treated mice": {"tested_on": "LPS-treated mice", "experiment": "Real-time chemiluminescence imaging in LPS-induced peritonitis model", "assay_type": "in vivo", "experimental": "The model was induced by intraperitoneal injection of LPS (15 ng) in 100 μL of PBS or PBS only as a control. Probe BTPDNe (40 μM·Kg^−1) or MPDNe (40 μM·Kg^−1) in PBS (10 mM, pH 7.4) containing 10% DMSO was intraperitoneally injected in mice. Then, chemiluminescent signals at different post-injection timepoints (0, 5, 10, 20, 45 and 60 min) were recorded using IVIS system bioluminescence with acquiring time of 120 s. After 3 h, the peritoneum was flushed with PBS (5 mL)+EDTA (5 mM). After erythrocyte lysis, neutrophils from C57Bl/6 mice were stained with a PE-labeled CD. After treatment with LPS for 3 h, CD11c antibody and an APC-labeled Ly6G antibody were added to the neutrophils, and the neutrophils were analyzed for double-positive events using flow cytometry (BD Biosciences). Data analysis was performed using Flowjo V10. Neutrophils were gated as CD45+CD11b+Ly6G+cells after the exclusion of doublets.\nFluorescence and chemiluminescence in vivo imaging of the probes were measured by an IVIS spectrum imaging system. Chemiluminescence imaging of the cells was recorded on LX71 inverted microscope. Tissue slices were cut by Leica, Germany slicer and imaged by a Nikon ECLIPSE 80i microscope. The images of tissue sections and cells were recorded with a LSM800 confocal laser scanning microscope. The white light was provided by 150 W LED High Bay Thermo Light."}},
  "data": [
    {"smiles": "COC1(c2ccc(-c3nc4ccccc4s3)c(OCc3ccc(NC(=O)[C@@H](NC(=O)[C@@H]4CCCN4C(=O)[C@H](C)NC(=O)[C@H](C)NC(C)=O)C(C)C)cc3)c2)OOC12C1CC3CC(C1)CC2C3", "note": "(stereo partly shown) [BTPDNe]", "values": [
      {"measurement": "enzyme kinetic coefficient", "setting": "NE [1]", "value": 22000, "unit": "M⁻¹ s⁻¹"},
      {"measurement": "Kcat", "setting": "NE [1]; 37° C., 10 min, pH 7.5", "value": 1.15, "unit": "s⁻¹"},
      {"measurement": "Km", "setting": "NE [1]; 37° C., 10 min, pH 7.5", "value": 52.2, "unit": "µM"},
      {"measurement": "differentiation of neutrophils from other immune cells", "setting": "neutrophils; neutrophil, DC, macrophage, CTL, 3T3, 20 μM", "value": "differentiated neutrophils from other immune cells"},
      {"measurement": "activated chemiluminescence signal in neutrophils, 30 min", "setting": "neutrophils; probe 10 μM, incubation 30 min", "value": 63.0, "unit": "pixels"},
      {"measurement": "activated chemiluminescence signal in neutrophils, 1 h", "setting": "neutrophils; probe 10 μM, incubation 1 h", "value": 42.7, "unit": "pixels"},
      {"measurement": "colocalization of probe activation with neutrophil marker", "setting": "dorsal skins of mice", "value": "colocalized well with APC-Ly6G"},
      {"measurement": "selectivity towards NE over other enzymes", "setting": "NE [2]; APN, ALP, Cas-3, cat B, GGT, furin, β-gal, NTR, PR3, CatG (~0.1 U/mL)", "value": "high selectivity"},
      {"measurement": "fluorescence increase after incubation with NE", "setting": "NE [2]; at 515 nm, probe 20 μM, NE 0.1 U/mL, 30 min", "value": 20.1, "unit": "fold"},
      {"measurement": "chemiluminescence enhancement after incubation with NE", "setting": "NE [2]; probe 20 μM, NE 0.1 U/mL, 50 mM Tris, 1 M NaCl, 0.05% Brij-35, pH 7.5, 37° C., 30 min, BTPDNe at 515 nm, MPDNe at 550 nm", "value": "~42.3", "unit": "fold"},
      {"measurement": "chemiluminescent signal relative to MPDNe-injected mice", "setting": "LPS-treated mice; 20 min post-treatment of probes", "value": "~2.15", "unit": "fold"},
      {"measurement": "chemiluminescent signals after 60 min", "setting": "LPS-treated mice; LPS-treated mice, 60 min post injection", "value": "could still be observed"},
      {"measurement": "maximum chemiluminescent signal enhancement in peritoneum relative to negative control group", "setting": "LPS-treated mice; LPS-treated mice, 3 h post LPS, i.p. probe 40 μM·kg^−1", "value": "~9.2", "unit": "fold"}
    ]}
  ]
}
